Test results published in BindingDB's records for doi:10.1021/acs.jmedchem.5b01559 (University of Siena, 2016).

Target: Cannabinoid receptor 2 (Homo sapiens, UniProt P34972)
Experiment: Displacement of [3H]-CP-55940 from human recombinant CB2 receptor expressed in HEK293 cells after 90 mins by Competition binding assay

Cannabinoid receptor 2, sequence (P34972 whole entry): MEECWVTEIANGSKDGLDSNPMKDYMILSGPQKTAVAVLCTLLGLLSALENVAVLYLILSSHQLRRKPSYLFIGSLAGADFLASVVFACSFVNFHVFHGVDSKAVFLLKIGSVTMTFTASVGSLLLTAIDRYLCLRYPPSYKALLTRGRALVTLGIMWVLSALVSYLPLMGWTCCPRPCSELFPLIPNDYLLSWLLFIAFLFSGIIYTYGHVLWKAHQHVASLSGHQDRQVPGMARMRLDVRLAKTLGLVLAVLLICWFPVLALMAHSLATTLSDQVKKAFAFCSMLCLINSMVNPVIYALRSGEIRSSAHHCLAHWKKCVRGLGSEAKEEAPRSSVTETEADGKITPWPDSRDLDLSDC

Row | SMILES | Ki
1 | CCCCCn1c(=O)c(C(=O)NC23CC4CC(CC(C4)C2)C3)c(O)c2cc(C(C)C)ccc21 | 0.53 nM
2 | CCCCCn1c(=O)c(C(=O)NC23CC4CC(CC(C4)C2)C3)c(O)c2ccc(F)cc21 | 0.93 nM
3 | CC(C)c1ccc2c(c1)c(=O)c(C(=O)NC13CC4CC(CC(C4)C1)C3)cn2CCN(C)C | 146 nM
4 | COCCOCn1cc(C(=O)NC23CC4CC(CC(C4)C2)C3)c(=O)c2cc(C(C)C)ccc21 | 480 nM
5 | CC(C)c1ccc2c(c1)c(=O)c(C(=O)NC13CC4CC(CC(C4)C1)C3)cn2CCN1CCS(=O)(=O)CC1 | 1930 nM
6 | CN(C)CCn1cc(C(=O)NC23CC4CC(CC(C4)C2)C3)c(=O)c2ccc(F)cc21 | 60 nM
7 | COCCOCn1cc(C(=O)NC23CC4CC(CC(C4)C2)C3)c(=O)c2ccc(F)cc21 | 56 nM
8 | O=C(NC12CC3CC(CC(C3)C1)C2)c1cn(CCN2CCS(=O)(=O)CC2)c2cc(F)ccc2c1=O | 246 nM
9 | CC(C)c1cc2c(=O)c(C(=O)NC34CC5CC(CC(C5)C3)C4)cn(CCN(C)C)c2cc1F | 11 nM
10 | CCCCCn1c(=O)c(C(=O)NC23CC4CC(CC(C4)C2)C3)c(O)c2cc(C(C)C)c(F)cc21 | 66 nM
11 | O=C(NCC1CCCCC1)c1c(O)c2ccccc2n(CCCCO)c1=O | 41 nM
12 | O=C(NCc1ccc(F)cc1)c1c(O)c2cc(-c3ccco3)ccc2n(CCCCO)c1=O | 253 nM
13 | COc1ccc(CNC(=O)c2c(O)c3cc(-c4cccs4)ccc3n(CCCCO)c2=O)cc1 | 2240 nM
14 | CCCCCn1c(=O)c(C(=O)NCc2ccc(OC)cc2)c(O)c2cc(-c3cccs3)ccc21 | 20 nM
